Type in all cases: cell-based
A short description of one data set: MTT assay. The conditions noted are these: human, HEK-293 cells (normal reference cell line), HEK-293 (normal cells), read-out: IC50, cytotoxicity. As to the method: (§1) Therefore, the whole set of compounds were tested by using MTT assay in order to check their overall cytotoxic effect. The growth of cells was monitored after 24 and 48 h of incubation with the increased concentrations (1–100 µg/ml) of the thiosemicarbazide derivatives. […] This confirms that the compounds tested combine different mechanisms of anticancer activity, and DNA topoisomerase II inhibition is only one of them.
(§2) Cytotoxicity of the synthesised compounds were examined against a panel of the cancer cell lines, MCF-7 (estrogen-dependent human breast cancer cells), MDA-MB-231 (oestrogen-independent human breast cancer cells), SCC- 25 (squamous cell carcinoma of the tongue), FaDu (squamous cell carcinoma of the pharynx), A- 549 (human lung carcinoma), AGS (human gastric adenocarcinoma), LS-180, HT-29 (colon cancer cell lines), T98G (glioblastoma cells), A375 (melanoma cells). Human embryonic kidney (HEK-293) cells and human normal skin fibroblasts (CRL-2072) were used as reference cell lines. The investigated cell lines were obtained from American Type Culture Collection (ATCC; Manassas, VA, USA). A375, MCF-7, MDA-MB-231, T98G cells were cultured in Dulbecco’s Modified Eagle’s Medium (DMEM) (Sigma Aldrich, St. Louis, MO, USA) supplemented with 10% heat inactivated foetal bovine serum (FBS), penicillin (100 U/mL), and streptomycin (100 μg/mL). SCC-25 cells were cultured in 1:1 mixture of Dulbecco’s modified Eagle’s medium and Ham’s F12 Medium (Sigma Aldrich, St. Louis, MO, USA) supplemented with 400 ng/ml hydrocortisone, 10% FBS, penicillin (100 U/mL), and streptomycin (100 μg/mL). A549 and AGS cells were maintained in F-12K Medium (Sigma Aldrich, St. Louis, MO, USA). LS-180 and FaDu cells were cultured in Eagle’s Minimum Essential Medium. HT-29 cells were maintained in McCoy’s 5 A Medium (Sigma Aldrich, St. Louis, MO, USA) supplemented with 10%FBS, penicillin (100 U/mL), and streptomycin (100 μg/mL). All the cells were maintained at 37 °C in a humidified atmosphere of 5% CO2.
(§3) The synthesised compounds were dissolved in DMSO in order to obtain stock solutions. At the day of the experiment, the suspension of cells (1 × 10^5 cells/mL) in the respective medium was applied to a 96-well plate at 100 μL per well. […] The control cells were cultured only with a medium containing 2% FBS. Cytotoxicity of DMSO was also checked at concentrations present in respective dilutions of stock solution. After 24 h (or 48 h) of incubation, 15 μL of MTT working solution (5 mg/mL in PBS) was added to each well. The plate was incubated for 3 h. Subsequently, 100 μL of 10% SDS solution was added to each well. Cells were incubated overnight at 37 °C to dissolve the precipitated formazan crystals. The concentration of the dissolved formazan was evaluated by measuring the absorbance at λ = 570 nm, using a microplate reader (Epoch, BioTek Instruments, Inc., Winooski, VT, USA). At least two independent experiments were performed in triplicates. The results of the MTT assay were expressed as mean ± SD. […] IC50 values of the investigated derivatives and standards were calculated using the IC50 calculator.[23]
For orientation: Formazan colour is commonly taken as a measure of viable cells.

In another data set the test system is A375 (melanoma cells). In words: MTT assay. Conditions: Homo sapiens, read-out: IC50, cytotoxicity. How it is done:
as §1, §2, §3

The test system of data set [1] is A549 (human lung carcinoma). In words: MTT assay. The conditions noted are these: read-out: IC50, cytotoxicity. How it is done:
as §1, §2, §3

The subject of data set [2] is AGS (human gastric adenocarcinoma). In words: MTT assay. Conditions: read-out: IC50, cytotoxicity. How it is done: as §1, §2, §3
Data set [3] has as its system FaDu (squamous cell carcinoma of the pharynx). In words: MTT assay. Conditions: Homo sapiens, read-out: IC50, cytotoxicity. As to the method: as §1, §2, §3
In data set [4] the test system is HT-29 (colon cancer cell line). In words: MTT assay. The conditions noted are these: Homo sapiens, HT-29, MTT, read-out: IC50, cytotoxicity. How it is done:
as §1, §2, §3

In data set [5] the test system is LS180 (colon cancer cell line). In words: MTT assay. The conditions noted are these: Homo sapiens, read-out: IC50, cytotoxicity. As to the method: as §1, §2, §3
Data set [6] relates to MCF-7 (estrogen-dependent human breast cancer cells). In words: MTT assay. Conditions: MCF7, MCF-7, MTT, read-out: IC50, cytotoxicity. How it is done:
as §1, §2, §3

The test system of data set [7] is MDA-MB-231 (estrogen-independent human breast cancer cells). In words: MTT assay. The conditions noted are these: MDA-MB-231, MTT, read-out: IC50, cytotoxicity. As to the method: as §1, §2, §3
Data set [8] has as its system SCC-25 (squamous cell carcinoma of the tongue). In words: MTT assay. Conditions: Homo sapiens, SCC-25, MTT, read-out: IC50, cytotoxicity. How it is done: as §1, §2, §3
The test system of data set [9] is T98G (glioblastoma cells). In words: MTT assay. The conditions noted are these: Homo sapiens, read-out: IC50, cytotoxicity. As to the method:
as §1, §2, §3

Values after ≈ are worked out from the molar mass of the structure shown. Like-named read-outs stand apart in the source and are kept apart here. Some results are limits rather than exact numbers.

Take `CC(C)c1cccc(C(C)C)c1NC(=S)NNC(=O)Cc1cccc2ccccc12` [Compound 1, 4-(2,6-Diisopropylphenyl)-1-[(naphth-1-yl)acetyl]thiosemicarbazide]: the 50% inhibitory concentration (IC50) at 24 h in the data set “MTT assay” came out at 17.6 µg/mL (≈ 41.9 µM). Moreover, in “MTT assay”, the IC50 at 48 h was found to be 9.61 µg/mL (≈ 22.9 µM). Also, the IC50 in the data set with A375 (melanoma cells) (A-375, 24h) was 4.57 µg/mL (≈ 10.9 µM); in the data set on A375 (melanoma cells) (A-375, 48 h) it was 1.82 µg/mL (≈ 4.34 µM); in data set [1] (24h) it was 3.87 µg/mL (≈ 9.22 µM); in data set [1] (48h), 2.27 µg/mL (≈ 5.41 µM); in data set [2] (24h), 5.92 µg/mL (≈ 14.1 µM); in [2] (48 h), 2.69 µg/mL (≈ 6.41 µM). The IC50 came out at 7.26 µg/mL (≈ 17.3 µM) in [3] (24h); 2.01 µg/mL (≈ 4.79 µM) in data set [3] (48 h); 8.96 µg/mL (≈ 21.4 µM) in data set [4] (24h); 5.33 µg/mL (≈ 12.7 µM) in data set [4] (48 h); 4.57 µg/mL (≈ 10.9 µM) in [5] (24h); 2.54 µg/mL (≈ 6.05 µM) in data set [5] (48 h). The half-maximal inhibitory concentration (IC50) in [6] (24h) amounted to 9.82 µg/mL (≈ 23.4 µM); in data set [6] (48h), 8.45 µg/mL (≈ 20.1 µM); in data set [7] (24h), 9.21 µg/mL (≈ 21.9 µM); in data set [7] (48h) it was 8.04 µg/mL (≈ 19.2 µM); in data set [8] (24h), 7.06 µg/mL (≈ 16.8 µM); in [8] (48 h), 5.22 µg/mL (≈ 12.4 µM). Moreover, the IC50 was 6.98 µg/mL (≈ 16.6 µM) in data set [9] (24h) and 2.27 µg/mL (≈ 5.41 µM) in data set [9] (48h).
With `COc1cc([C@@H]2c3cc4c(cc3[C@@H](O[C@@H]3O[C@@H]5CO[C@@H](C)O[C@H]5[C@H](O)[C@H]3O)[C@H]3COC(=O)[C@H]23)OCO4)cc(OC)c1O` [Etoposide, etoposide, reference compound], in “MTT assay”, the IC50 at 24 h was 37.9 µg/mL (≈ 64.3 µM). The IC50 at 48 h in “MTT assay” amounted to 29.1 µg/mL (≈ 49.5 µM). Besides, the IC50 in the data set with A375 (melanoma cells) (A-375, 24h) was 10.2 µg/mL (≈ 17.3 µM); with A375 (melanoma cells) (A-375, 48 h) it was 6.48 µg/mL (≈ 11 µM); in data set [1] (24h) it was more than 100 µg/mL; in data set [1] (48h) it was 15.6 µg/mL (≈ 26.5 µM); in [2] (24h) it was 50.8 µg/mL (≈ 86.3 µM); in data set [2] (48 h), 29.8 µg/mL (≈ 50.6 µM). Moreover, the IC50 is 12.5 µg/mL (≈ 21.3 µM) in data set [3] (24h); 10.7 µg/mL (≈ 18.2 µM) in data set [3] (48 h); 94.5 µg/mL (≈ 161 µM) in data set [4] (24h); 11.3 µg/mL (≈ 19.2 µM) in [4] (48 h); more than 100 µg/mL in data set [5] (24h); 11.7 µg/mL (≈ 19.9 µM) in data set [5] (48 h). The 50% inhibitory concentration (IC50) in data set [6] (24h) is more than 100 µg/mL; in data set [6] (48h), 6.15 µg/mL (≈ 10.4 µM); in [7] (24h), more than 100 µg/mL; in data set [7] (48h), 40.3 µg/mL (≈ 68.5 µM); in data set [8] (24h), 59.1 µg/mL (≈ 100 µM); in data set [8] (48 h) it was 23.7 µg/mL (≈ 40.3 µM). In addition, the figures for the half-inhibitory concentration (IC50) in [9] (24h) and in data set [9] (48h) were more than 100 µg/mL and 17.1 µg/mL (≈ 29 µM), respectively.
As to `O=C(NNC(=S)Nc1ccc(N=Nc2ccccc2)cc1)c1ccccc1[N+](=O)[O-]` [Compound 3, 4-(4-Phenylazophenyl)-1-(2-nitrobenzoyl)thiosemicarbazide], the IC50 at 24 h in the data set “MTT assay” was 27.5 µg/mL (≈ 65.5 µM). Also, the IC50 at 48 h in “MTT assay” was determined as 9.19 µg/mL (≈ 21.9 µM). The IC50 with A375 (melanoma cells) (A-375, 24h) came to 1.8 µg/mL (≈ 4.28 µM); in the data set on A375 (melanoma cells) (A-375, 48 h), 0.56 µg/mL (≈ 1.33 µM); in data set [1] (24h), 5.37 µg/mL (≈ 12.8 µM); in data set [1] (48h), 5.13 µg/mL (≈ 12.2 µM); in [2] (24h), 5.54 µg/mL (≈ 13.2 µM); in data set [2] (48 h), 4.31 µg/mL (≈ 10.3 µM). The IC50 worked out at 2.49 µg/mL (≈ 5.92 µM) in [3] (24h); 2.18 µg/mL (≈ 5.18 µM) in data set [3] (48 h); 7.37 µg/mL (≈ 17.5 µM) in [4] (24h); 3.77 µg/mL (≈ 8.97 µM) in data set [4] (48 h); 3.12 µg/mL (≈ 7.42 µM) in [5] (24h); 2.7 µg/mL (≈ 6.42 µM) in [5] (48 h). Further, the IC50 in data set [6] (24h) was found to be 7.67 µg/mL (≈ 18.2 µM); in [6] (48h), 5.48 µg/mL (≈ 13 µM); in data set [7] (24h), 10.5 µg/mL (≈ 24.9 µM); in data set [7] (48h), 6.02 µg/mL (≈ 14.3 µM); in data set [8] (24h) it was 4.76 µg/mL (≈ 11.3 µM); in [8] (48 h), 3.87 µg/mL (≈ 9.2 µM). The IC50 in data set [9] (24h) is 3.35 µg/mL (≈ 7.97 µM); in data set [9] (48h) it was 2.94 µg/mL (≈ 6.99 µM).
As to `O=C(Cc1cccc2ccccc12)NNC(=S)Nc1ccc(N=Nc2ccccc2)cc1` [Compound 2, 4-(4-Phenylazophenyl)-1-[(naphth-1-yl)acetyl]thiosemicarbazide], the IC50 at 24 h in “MTT assay” stood at 15.6 µg/mL (≈ 35.5 µM). Besides, in the data set “MTT assay”, the IC50 at 48 h is 10 µg/mL (≈ 22.8 µM). Further, the IC50 in the data set with A375 (melanoma cells) (A-375, 24h) turned out to be 8.96 µg/mL (≈ 20.4 µM); with A375 (melanoma cells) (A-375, 48 h) it was 2.47 µg/mL (≈ 5.62 µM); in data set [1] (24h), 5.84 µg/mL (≈ 13.3 µM); in data set [1] (48h) it was 5.78 µg/mL (≈ 13.1 µM); in data set [2] (24h), 5.32 µg/mL (≈ 12.1 µM); in data set [2] (48 h), 2.96 µg/mL (≈ 6.73 µM). Further, the IC50 amounted to 2.75 µg/mL (≈ 6.26 µM) in [3] (24h); 2.54 µg/mL (≈ 5.78 µM) in [3] (48 h); 8.96 µg/mL (≈ 20.4 µM) in [4] (24h); 5.33 µg/mL (≈ 12.1 µM) in data set [4] (48 h); 2.87 µg/mL (≈ 6.53 µM) in [5] (24h); 2.24 µg/mL (≈ 5.1 µM) in [5] (48 h). Also, the IC50 in data set [6] (24h) came to 9.18 µg/mL (≈ 20.9 µM); in data set [6] (48h), 8.85 µg/mL (≈ 20.1 µM); in data set [7] (24h), 7.64 µg/mL (≈ 17.4 µM); in [7] (48h), 7.07 µg/mL (≈ 16.1 µM); in data set [8] (24h), 4.73 µg/mL (≈ 10.8 µM); in [8] (48 h) it was 3.12 µg/mL (≈ 7.1 µM). Further, the IC50 in data set [9] (24h) was determined as 5.53 µg/mL (≈ 12.6 µM); in data set [9] (48h), 4.85 µg/mL (≈ 11 µM).

As usually defined, the IC50 is the concentration that inhibits the measured activity by half.

For the origin of these results see paper PMC9648375, “Identification of the first-in-class dual inhibitors of human DNA topoisomerase IIα and indoleamine-2,3-dioxygenase 1 (IDO 1) with strong anticancer properties” (Journal of Enzyme Inhibition and Medicinal Chemistry, 2022).
